Key:
SMYD3 [1] = target: T1, SMYD3 (Homo sapiens (Human), UniProt Q9H7B4); assay: SMYD3 biochemical assay (SPA, 3H-SAM methylation of MEKK2 protein substrate); details: read-out: SMYD3 Biochem IC50*
Summary of the method: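 Enzyme: untagged full-length human SMYD3 from E. coli; substrate GST-tagged MEKK2 from insect cells. Buffer 25 mM Tris-Cl pH 8.0, 1 mM TCEP, 0.005% BSG/Tween 20. 30 min compound–enzyme preincubation at RT; 3H-SAM/MEKK2 start; stop with cold SAM (100 uM final); SPA readout in cpm.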

SMYD3 [2] = target: T1, SMYD3; assay: SMYD3 cell assay (Trimethyl-MEKK2 In-Cell Western in 293T/17 cells); type: cell-based; details: read-out: SMYD3 Cell IC50*
Summary of the method: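 In-Cell Western readout: methanol-fixed cells stained for trimethyl-MEKK2 and flag tag, ratio per well normalized to DMSO and background controls.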

T1 sequence (Q9H7B4 whole entry): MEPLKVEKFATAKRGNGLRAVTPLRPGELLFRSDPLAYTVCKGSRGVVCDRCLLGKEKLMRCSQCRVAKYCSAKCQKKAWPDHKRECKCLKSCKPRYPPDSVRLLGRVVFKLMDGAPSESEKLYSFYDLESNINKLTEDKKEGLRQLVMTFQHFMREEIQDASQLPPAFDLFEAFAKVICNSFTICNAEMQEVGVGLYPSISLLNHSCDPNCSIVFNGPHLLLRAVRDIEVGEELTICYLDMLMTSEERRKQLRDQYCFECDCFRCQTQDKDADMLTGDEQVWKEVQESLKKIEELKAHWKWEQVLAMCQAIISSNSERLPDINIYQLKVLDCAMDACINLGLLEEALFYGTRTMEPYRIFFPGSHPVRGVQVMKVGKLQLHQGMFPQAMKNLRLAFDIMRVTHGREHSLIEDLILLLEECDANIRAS

SMILES	IC50 (SMYD3 [1]) [nM]	IC50 (SMYD3 [2]) [nM]
CN1CCC2(CC1)CN(S(=O)(=O)N1[C@@H]3CC[C@H]1C[C@@H](NC(=O)c1cc(C4CC4)on1)C3)C2 [compound 782, 5-cyclopropyl-N-((1R,3r,5S)-8-((7-methyl-2,7-diazaspiro[3.5]nonan-2-yl)sulfonyl)-8-azabicyclo[3.2.1]octan-3-yl)isoxazole-3-carboxamide]	1.23	30.1
C[C@H]1C[C@@H](NC(=O)c2cc(C3CC3)on2)CCN1S(=O)(=O)C1CCC(CN)C1 (stereo partly drawn) [compound 783, N-((2S,4S)-1-((3-(aminomethyl)cyclopentyl)sulfonyl)-2-methylpiperidin-4-yl)-5-cyclopropylisoxazole-3-carboxamide]	1.24	51.7
C[C@H]1C[C@@H](NC(=O)c2cc(C3CC3)on2)CCN1S(=O)(=O)C[C@@H]1CC[C@@H](N)C1 [compound 784, N-((2S,4S)-1-((((1R,3R)-3-aminocyclopentyl)methyl)sulfonyl)-2-methylpiperidin-4-yl)-5-cyclopropylisoxazole-3-carboxamide]	1.29	39.3
CCN1CCC(CS(=O)(=O)N2[C@@H]3CC[C@H]2C[C@@H](NC(=O)c2cc(C4CC4)on2)C3)CC1 [compound 785, 5-cyclopropyl-N-((1R,3r,5S)-8-(((1-ethylpiperidin-4-yl)methyl)sulfonyl)-8-azabicyclo[3.2.1]octan-3-yl)isoxazole-3-carboxamide]	1.36	44.1
CN[C@H]1CC[C@H](S(=O)(=O)N2[C@@H]3CC[C@H]2C[C@@H](NC(=O)c2cc(C4CC4)on2)C3)CC1 [compound 786, 5-cyclopropyl-N-((1R,3R,5S)-8-(((1r,4R)-4-(methylamino)cyclohexyl)sulfonyl)-8-azabicyclo[3.2.1]octan-3-yl)isoxazole-3-carboxamide]	1.37	35.8
CC(C)N1CCC(CS(=O)(=O)N2[C@@H]3CC[C@H]2C[C@@H](NC(=O)c2cc(C4CC4)on2)C3)CC1 [compound 787, 5-cyclopropyl-N-((1R,3r,5S)-8-(((1-isopropylpiperidin-4-yl)methyl)sulfonyl)-8-azabicyclo[3.2.1]octan-3-yl)isoxazole-3-carboxamide]	1.38	38.6
CCc1cc(C(=O)N[C@H]2C[C@H]3CC[C@@H](C2)N3S(=O)(=O)[C@H]2CC[C@H](NCCO)CC2)no1 [compound 788, 5-ethyl-N-((1R,3R,5S)-8-(((1r,4R)-4-((2-hydroxyethyl)amino)cyclohexyl)sulfonyl)-8-azabicyclo[3.2.1]octan-3-yl)isoxazole-3-carboxamide]	1.42	30.8
CCc1cc(C(=O)N[C@H]2C[C@H]3CC[C@@H](C2)N3S(=O)(=O)[C@H]2CC[C@H](N)CC2)no1 [compound 789, N-((1R,3R,5S)-8-(((1r,4R)-4-aminocyclohexyl)sulfonyl)-8-azabicyclo[3.2.1]octan-3-yl)-5-ethylisoxazole-3-carboxamide]	1.59	31.9
C[C@H]1CN(S(=O)(=O)[C@H]2CC[C@H](N)CC2)CC[C@H]1NC(=O)c1cc(C2CC2)on1 [compound 790, N-((3S,4R)-1-(((1r,4S)-4-aminocyclohexyl)sulfonyl)-3-methylpiperidin-4-yl)-5-cyclopropylisoxazole-3-carboxamide]	1.81	56
O=C(N[C@H]1C[C@H]2CC[C@@H](C1)N2S(=O)(=O)N1CCC(NCCc2ccccc2)CC1)c1cc(C2CC2)on1 [compound 791, 5-cyclopropyl-N-((1R,3r,5S)-8-((4-(phenethylamino)piperidin-1-yl)sulfonyl)-8-azabicyclo[3.2.1]octan-3-yl)isoxazole-3-carboxamide]	1.82	40.4
O=C(N[C@H]1C[C@H]2CC[C@@H](C1)N2S(=O)(=O)N1CCC(NCCO)CC1)c1cc(C2CC2)on1 [compound 792, 5-cyclopropyl-N-((1R,3r,5S)-8-((4-((2-hydroxyethyl)amino)piperidin-1-yl)sulfonyl)-8-azabicyclo[3.2.1]octan-3-yl)isoxazole-3-carboxamide]	1.85	44.9
CCc1cc(C(=O)N[C@H]2CCN(S(=O)(=O)N3CCC(N)CC3)[C@@H](C)C2)no1 [compound 793, N-((2S,4S)-1-((4-aminopiperidin-1-yl)sulfonyl)-2-methylpiperidin-4-yl)-5-ethylisoxazole-3-carboxamide]	1.85	26.3
O=C(N[C@H]1C[C@H]2CC[C@@H](C1)N2S(=O)(=O)N1CCC(NCCCC(F)(F)F)CC1)c1cc(C2CC2)on1 [compound 794, 5-cyclopropyl-N-((1R,3r,5S)-8-((4-((4,4,4-trifluorobutyl)amino)piperidin-1-yl)sulfonyl)-8-azabicyclo[3.2.1]octan-3-yl)isoxazole-3-carboxamide]	1.87	34.7
C[C@H]1C[C@@H](NC(=O)c2cc(C3CC3)on2)CCN1S(=O)(=O)CC[C@@H]1CCN(C)C1 [compound 795, 5-cyclopropyl-N-((2S,4S)-2-methyl-1-((2-((S)-1-methylpyrrolidin-3-yl)ethyl)sulfonyl)piperidin-4-yl)isoxazole-3-carboxamide]	1.87	27.6
CC1(N)CCN(S(=O)(=O)N2[C@@H]3CC[C@H]2C[C@@H](NC(=O)c2cc(C4CC4)on2)C3)CC1 [compound 796, N-((1R,3r,5S)-8-((4-amino-4-methylpiperidin-1-yl)sulfonyl)-8-azabicyclo[3.2.1]octan-3-yl)-5-cyclopropylisoxazole-3-carboxamide]	1.9	40.7
CCc1cc(C(=O)N[C@H]2C[C@H]3CC[C@@H](C2)N3S(=O)(=O)CC2CCN(C)CC2)no1 [compound 797, 5-ethyl-N-((1R,3r,5S)-8-(((1-methylpiperidin-4-yl)methyl)sulfonyl)-8-azabicyclo[3.2.1]octan-3-yl)isoxazole-3-carboxamide]	1.9	42.7
CN[C@H]1CC[C@@H](S(=O)(=O)N2[C@@H]3CC[C@H]2C[C@@H](NC(=O)c2cc(C4CC4)on2)C3)CC1 [compound 798, 5-cyclopropyl-N-((1R,3R,5S)-8-(((1s,4S)-4-(methylamino)cyclohexyl)sulfonyl)-8-azabicyclo[3.2.1]octan-3-yl)isoxazole-3-carboxamide]	1.91	30.5
CCc1cc(C(=O)N[C@H]2C[C@H]3CC[C@@H](C2)N3S(=O)(=O)N2CCC(N)CC2)no1 [compound 799, N-((1R,3r,5S)-8-((4-aminopiperidin-1-yl)sulfonyl)-8-azabicyclo[3.2.1]octan-3-yl)-5-ethylisoxazole-3-carboxamide]	2.05	34.6
CC1CN(S(=O)(=O)N2CC[C@H](NC(=O)c3cc(C4CC4)on3)C[C@@H]2C)CCC1N (stereo partly drawn) [compound 800, N-((2S,4S)-1-((4-amino-3-methylpiperidin-l-yl)sulfonyl)-2-methylpiperidin-4-yl)-5-cyclopropylisoxazole-3-carboxamide]	2.18	39.7
NC1C2CN(S(=O)(=O)N3[C@@H]4CC[C@H]3C[C@@H](NC(=O)c3cc(C5CC5)on3)C4)CC12 (stereo partly drawn) [compound 801, N-((1R,3r,5S)-8-((6-amino-3-azabicyclo[3.1.0]hexan-3-yl)sulfonyl)-8-azabicyclo[3.2.1]octan-3-yl)-5-cyclopropylisoxazole-3-carboxamide]	2.19	27.7

From patent US10577363B2, “Substituted piperidine compounds” (EPIZYME, INC., priority 2014, dated 2020)
